Values of other authors as cited in patent publication US11229703B2, “Radiotherapy improvements” (NOXOPHARM LIMITED, priority 2016, dated 2022).

What was measured:
[1] = system: cancer, especially metastatic disease involving solid tumours; conditions: compound alone, various clinical trials
[2] = system: hormone refractory prostate cancer; conditions: males with hormone refractory prostate cancer given idronoxil ranging from 20 to 400 mg; 6 months from treatment

SMILES: O=c1c(-c2ccc(O)cc2)coc2cc(O)cc(O)c12 [genestein, reference compound]
- complete or partial response to cancer [1]: unable to provide either a complete or partial response

SMILES: Oc1ccc(C2=Cc3ccc(O)cc3OC2)cc1 [idronoxil, 2H-1-Benzopyran-7-0,1,3-(4-hydroxyphenyl)]
- disease progression [2]: disease had progressed in most individuals by 6 months
- complete or partial response to cancer [1]: unable to provide either a complete or partial response
